Reference: publication PMC6178189 (Oxidative Medicine and Cellular Longevity, 2018)
Converted amounts (≈) assume the structure as drawn.

Biological target: T1, rat intestinal α-glucosidase
T1 construct: gene Si; crude saline extract of commercial rat intestinal acetone powder (Sigma-Aldrich); mixed brush-border alpha-glucosidases, not purified
Assay: p-nitrophenol release from pNPG, […] nm
Assay type: biochemical
Details: 5 mM p-nitrophenyl glucopyranoside (maltose or sucrose also named in method; substrate of the table value not told), 0.1 M phosphate pH 6.9, 37°C, 30 min, crude enzyme

IC50 (mg/mL) / α-Glucosidase: 1.63 ± 0.10 mg/mL (≈ 2520 µM)
SMILES: C[C@H]1O[C@H](O[C@H]2[C@H](O)[C@@H](O)[C@@H](O[C@H]3[C@H](O)[C@@H](O)C(O)O[C@@H]3CO)O[C@@H]2CO)[C@H](O)[C@@H](O)[C@@H]1N[C@H]1C=C(CO)[C@@H](O)[C@H](O)[C@H]1O (stereo partly shown) [acarbose]
